# Test results taken from the supplement of paper PMC10307832.
# How the values were obtained:
# Assay in all cases: relative viability (nuclei count vs DMSO), 5 days (fraction); higher = more cells survive
# Cabozantinib + OSI-027 = compound: COc1cc2nccc(Oc3ccc(NC(=O)C4(C(=O)Nc5ccc(F)cc5)CC4)cc3)c2cc1OC [Cabozantinib] + COc1cccc2cc(-c3nc([C@H]4CC[C@H](C(=O)O)CC4)n4ncnc(N)c34)[nH]c12 [OSI-027] (partner 0.5 µM)
# Outline: (§1)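 Lung cancer cell lines in 1536-well plates were dosed by pin tool the day after seeding, either with one drug alone or with a fixed anchor-drug dose plus five library-drug doses (not always all listed) in √10 steps. After 5 days, cells were fixed and their nuclei stained in one step (final 0.05% Triton X-100, 1% formaldehyde, 1 ug/ml Hoechst), then counted on 4× images. Relative viability is the nuclei count in treated wells divided by that in vehicle wells. Values are medians of duplicate plates.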
# Zosuquidar + Palbociclib = compound: O[C@@H](COc1cccc2ncccc12)CN1CCN([C@@H]2c3ccccc3[C@@H]3[C@H](c4ccccc42)C3(F)F)CC1 [Zosuquidar] + CC(=O)c1c(C)c2cnc(Nc3ccc(N4CCNCC4)cn3)nc2n(C2CCCC2)c1=O [Palbociclib] (partner 0.5 µM)
# Outline: as §1
# Zosuquidar + Foretinib = compound: O[C@@H](COc1cccc2ncccc12)CN1CCN([C@@H]2c3ccccc3[C@@H]3[C@H](c4ccccc42)C3(F)F)CC1 [Zosuquidar] + COc1cc2c(Oc3ccc(NC(=O)C4(C(=O)Nc5ccc(F)cc5)CC4)cc3F)ccnc2cc1OCCCN1CCOCC1 [Foretinib] (partner 0.25 µM)
# Outline: as §1
# Zosuquidar + Pictilisib = compound: O[C@@H](COc1cccc2ncccc12)CN1CCN([C@@H]2c3ccccc3[C@@H]3[C@H](c4ccccc42)C3(F)F)CC1 [Zosuquidar] + CS(=O)(=O)N1CCN(Cc2cc3nc(-c4cccc5[nH]ncc45)nc(N4CCOCC4)c3s2)CC1 [Pictilisib] (partner 1 µM)
# Outline: as §1
Cell Line,relative viability (Cabozantinib + OSI-027; first compound 0.02 µM),relative viability (Cabozantinib + OSI-027; first compound 0.06325 µM),relative viability (Cabozantinib + OSI-027; first compound 0.2 µM),relative viability (Cabozantinib + OSI-027; first compound 0.6325 µM),relative viability (Cabozantinib + OSI-027; first compound 2 µM),relative viability (Zosuquidar + Palbociclib; first compound 0.01 µM),relative viability (Zosuquidar + Palbociclib; first compound 0.03162 µM),relative viability (Zosuquidar + Palbociclib; first compound 0.1 µM),relative viability (Zosuquidar + Palbociclib; first compound 0.3162 µM),relative viability (Zosuquidar + Palbociclib; first compound 1 µM),relative viability (Zosuquidar + Foretinib; first compound 0.01 µM),relative viability (Zosuquidar + Foretinib; first compound 0.03162 µM),relative viability (Zosuquidar + Foretinib; first compound 0.1 µM),relative viability (Zosuquidar + Foretinib; first compound 0.3162 µM),relative viability (Zosuquidar + Foretinib; first compound 1 µM),relative viability (Zosuquidar + Pictilisib; first compound 0.01 µM),relative viability (Zosuquidar + Pictilisib; first compound 0.03162 µM),relative viability (Zosuquidar + Pictilisib; first compound 0.1 µM),relative viability (Zosuquidar + Pictilisib; first compound 0.3162 µM),relative viability (Zosuquidar + Pictilisib; first compound 1 µM)
NCI-H2228,0.495,0.871,0.576,0.449,0.508,0.804,0.821,0.76,0.865,0.613,0.933,0.438,0.995,0.768,0.714,0.296,0.437,0.633,0.459,0.26
NCI-H2347,0.303,0.42,0.45,–,0.294,0.403,0.466,0.432,0.413,0.43,1.01,1.06,0.556,0.978,0.869,0.627,0.495,0.467,0.735,0.647
NCI-H2405,0.338,0.699,0.735,0.651,0.682,0.565,0.528,0.555,0.539,0.489,1.05,1.06,0.946,1.05,1.04,0.512,0.351,0.467,0.529,0.363
NCI-H3122,0.97,0.963,1.07,1.06,1.4,0.177,0.195,0.18,0.213,0.197,0.891,0.922,0.909,0.934,0.955,0.616,0.662,0.524,0.641,0.608
PC-3 [JPC-3],0.652,0.934,–,0.925,0.768,0.554,0.52,0.542,0.507,0.473,1.11,1.02,0.984,1.09,1.1,0.768,0.539,0.664,0.677,0.738
PC-14,0.388,0.973,0.0936,1.03,0.865,0.506,0.475,0.635,0.509,0.52,0.99,0.983,0.952,0.997,0.952,0.573,0.831,0.801,0.696,0.816
RERF-LC-KJ,0.498,0.623,0.547,0.602,0.645,1.1,1.07,1.06,1.1,1.14,0.895,0.926,0.861,0.923,0.844,0.467,0.586,0.536,0.679,0.57
SK-LU-1,0.3,0.37,0.394,0.298,0.312,0.396,0.381,0.408,0.432,0.396,0.799,0.871,0.937,0.961,0.77,0.552,0.642,0.567,0.689,0.543
SK-MES-1,0.542,0.718,0.649,0.665,0.512,0.332,0.347,0.374,0.329,0.319,0.891,0.872,0.879,1.05,0.94,0.324,0.324,0.33,0.394,0.392
SW 1573,0.59,0.891,0.669,0.606,0.492,0.44,0.4,0.541,0.405,0.372,0.976,0.888,1.07,1.05,0.879,0.425,0.465,0.446,0.626,0.597
